# Data from patent publication US20050163814A1, “Granulated phosphoroamido(di) thioates” (priority 2002, published 2005).
# Values joined by “and” are separate entries in the source; they are usually repeats but may differ in a detail not shown here. Equal values may be shown once. Marks after values point to notes of the source that are not given here.
# Legend:
# Type in all cases: physicochemical
# [1] = GE Brightness of acephate powder; details: bulk powder, reflected light
# Protocol: A sample of technical grade acephate crystals was obtained (Examples 1 and 3) and compared. […] Half of each sample was analyzed for brightness and particle size distribution.
# Milling caused a measurable increase in the brightness of the bulk powder sample as measured by reflected light. Such an increase is visually apparent as a noticeably brighter powder when compared side-by-side under the GE Brightness test.
# [2] = Crystal dimensions by visual inspection; details: for Crystal dimensions: length / Crystal dimensions: width: Table 4; for Aspect ratio: length:width; for average crystal length / average width: visual inspection
# Text: The unmilled acephate from example 3 was a commercially available technical grade having elongated cylindrical shaped crystals with an average crystal length of 250-500 μm and an average width of 40-100 μm. In contrast, the acephate powder of example 4 was made of substantially cylindrical shaped crystals with an average crystal length of less than about 150 μm and an average width of less than 40 μm.
# [3] = Particle size distribution (sieve openings) of acephate technical
# Protocol: The other half of the Source B sample was analyzed for particle size distribution as received and with the milling according to the invention. FIG. 1 (unmilled) and FIG. 2 (milled) are graphs of the particle size distributions from the milling process. All values are in terms of weight percent of total sample that could pass through the designated sieve opening.
# [4] = up to Sieve Size >177 μm, subject to rounding
smiles,measurement,setting,value
"COP(=O)(NC(C)=O)SC (stereo not shown) [Ex. 1, acephate, reference compound]",GE Brightness,[1],87.2
"COP(=O)(NC(C)=O)SC (stereo not shown) [Ex. 3, acephate, reference compound]",Crystal dimensions: length,[2]; listed as Unmilled,100-280 μm
same,Crystal dimensions: width,[2]; listed as Unmilled,40-50 μm
same,Aspect ratio,[2]; listed as Unmilled,2.5-5.6
same,average crystal length,[2],250-500 μm
same,average width,[2],40-100 μm
same,GE Brightness,[1],90.2
same,"Summary Particle Size Distribution, Range","[3]; Sieve Size 2.3-3.9 μm, listed as Unmilled",14.55 wt %
same,"Summary Particle Size Distribution, Range","[3]; Sieve Size 4.6-16 μm, listed as Unmilled",33.43 wt %
same,"Summary Particle Size Distribution, Range","[3]; Sieve Size 4.6-37 μm, listed as Unmilled",50.51 wt %
same,"Summary Particle Size Distribution, Range","[3]; Sieve Size 4.6-88 μm, listed as Unmilled",65.44 wt %
same,"Summary Particle Size Distribution, Range","[3]; Sieve Size 19-37 μm, listed as Unmilled",17.08 wt %
same,"Summary Particle Size Distribution, Range","[3]; Sieve Size 44-88 μm, listed as Unmilled",14.93 wt %
same,"Summary Particle Size Distribution, Range","[3]; Sieve Size 105-149 μm, listed as Unmilled",4.97 wt %
same,"Summary Particle Size Distribution, Range","[3]; Sieve Size <1.9 μm, listed as Unmilled",13.27 wt %
same,"Summary Particle Size Distribution, Range","[3]; Sieve Size <3.9 μm, listed as Unmilled",27.83 wt %
same,"Summary Particle Size Distribution, Range","[3]; Sieve Size >105 μm, listed as Unmilled",6.73 wt %
same,"Summary Particle Size Distribution, Range","[3]; Sieve Size >177 μm, listed as Unmilled",1.76 wt %
same,Particle Size Distribution,"[3]; Size 1.9 μm, listed as Unmilled",3.6123 weight percent
same,Particle Size Distribution,"[3]; Size 2.3 μm, listed as Unmilled",1.6125 weight percent
same,Particle Size Distribution,"[3]; Size 2.8 μm, listed as Unmilled",3.3402 weight percent
same,Particle Size Distribution,"[3]; Size 3.3 μm, listed as Unmilled",5.0469 weight percent
same,Particle Size Distribution,"[3]; Size 3.9 μm, listed as Unmilled",4.5533 weight percent
same,Particle Size Distribution,"[3]; Size 4.6 μm, listed as Unmilled",2.9044 weight percent
same,Particle Size Distribution,"[3]; Size 5.5 μm, listed as Unmilled",3.2481 weight percent
same,Particle Size Distribution,"[3]; Size 6.5 μm, listed as Unmilled",5.7966 weight percent
same,Particle Size Distribution,"[3]; Size 7.8 μm, listed as Unmilled",4.6403 weight percent
same,Particle Size Distribution,"[3]; Size 9.2 μm, listed as Unmilled",4.2474 weight percent
same,Particle Size Distribution,"[3]; Size 11 μm, listed as Unmilled",4.6232 weight percent
same,Particle Size Distribution,"[3]; Size 13 μm, listed as Unmilled",4.6531 weight percent
same,Particle Size Distribution,"[3]; Size 16 μm, listed as Unmilled",3.3203 weight percent
same,Particle Size Distribution,"[3]; Size 19 μm, listed as Unmilled",3.2150 weight percent
same,Particle Size Distribution,"[3]; Size 22 μm, listed as Unmilled",3.1651 weight percent
same,Particle Size Distribution,"[3]; Size 26 μm, listed as Unmilled",3.7619 weight percent
same,Particle Size Distribution,"[3]; Size 31 μm, listed as Unmilled",3.7231 weight percent
same,Particle Size Distribution,"[3]; Size 37 μm, listed as Unmilled",3.2123 weight percent
same,Particle Size Distribution,"[3]; Size 44 μm, listed as Unmilled",3.0323 weight percent
same,Particle Size Distribution,"[3]; Size 53 μm, listed as Unmilled",3.3767 weight percent
same,Particle Size Distribution,"[3]; Size 63 μm, listed as Unmilled",3.2501 weight percent
same,Particle Size Distribution,"[3]; Size 75 μm, listed as Unmilled",2.8069 weight percent
same,Particle Size Distribution,"[3]; Size 88 μm, listed as Unmilled",2.4665 weight percent
same,Particle Size Distribution,"[3]; Size 105 μm, listed as Unmilled",2.0819 weight percent
same,Particle Size Distribution,"[3]; Size 125 μm, listed as Unmilled",1.5293 weight percent
same,Particle Size Distribution,"[3]; Size 149 μm, listed as Unmilled",1.3606 weight percent
same,Particle Size Distribution,"[3]; Size 177 μm, listed as Unmilled",0.7768 weight percent
same,Particle Size Distribution,"[3]; Size 210 μm, listed as Unmilled",0.4565 weight percent
same,Particle Size Distribution,"[3]; Size 250 μm, listed as Unmilled",0.2321 weight percent
same,Particle Size Distribution,"[3]; Size 298 μm, listed as Unmilled",0.1849 weight percent
same,Particle Size Distribution,"[3]; Size <1.9 μm, listed as Unmilled",9.6625 weight percent
same,Particle Size Distribution,"[3]; Size >298 μm, listed as Unmilled",0.1068 weight percent
same,mean particle size,[3]; listed as Unmilled,30.4 μm
same,median particle size,[3]; listed as Unmilled,11.7 μm
same,"Summary Particle Size Distribution, Cumul.","[3]; up to Sieve Size 2.3-3.9 μm, listed as Unmilled",27.83 wt %
same,"Summary Particle Size Distribution, Cumul.","[3]; up to Sieve Size 4.6-16 μm, listed as Unmilled",61.26 wt %
same,"Summary Particle Size Distribution, Cumul.","[3]; up to Sieve Size 19-37 μm, listed as Unmilled",78.34 wt %
same,"Summary Particle Size Distribution, Cumul.","[3]; up to Sieve Size 44-88 μm, listed as Unmilled",93.27 wt %
same,"Summary Particle Size Distribution, Cumul.","[3]; up to Sieve Size 105-149 μm, listed as Unmilled",98.24 wt %
same,"Summary Particle Size Distribution, Cumul.","[3]; up to Sieve Size <1.9 μm, listed as Unmilled",13.27 wt %
same,"Summary Particle Size Distribution, Cumul.",[3]; [4],˜100* wt %
"COP(=O)(NC(C)=O)SC (stereo not shown) [Ex. 2, acephate]",GE Brightness,[1],88.4
"COP(=O)(NC(C)=O)SC (stereo not shown) [Ex. 4, acephate]",Crystal dimensions: length,[2]; listed as Milled,40-90 μm
same,Crystal dimensions: width,[2]; listed as Milled,20-25 μm
same,Aspect ratio,[2]; listed as Milled,2-3.6
same,average crystal length,[2],less than 150 μm
same,average width,[2],less than 40 μm
same,GE Brightness,[1],93.7
same,"Summary Particle Size Distribution, Range","[3]; Sieve Size 2.3-3.9 μm, listed as Milled",15.26 wt %
same,"Summary Particle Size Distribution, Range","[3]; Sieve Size 4.6-16 μm, listed as Milled",41.93 wt %
same,"Summary Particle Size Distribution, Range","[3]; Sieve Size 4.6-37 μm, listed as Milled",62.09 wt %
same,"Summary Particle Size Distribution, Range","[3]; Sieve Size 4.6-88 μm, listed as Milled",71.47 wt %
same,"Summary Particle Size Distribution, Range","[3]; Sieve Size 19-37 μm, listed as Milled",20.16 wt %
same,"Summary Particle Size Distribution, Range","[3]; Sieve Size 44-88 μm, listed as Milled",9.39 wt %
same,"Summary Particle Size Distribution, Range","[3]; Sieve Size 105-149 μm, listed as Milled",1.38 wt %
same,"Summary Particle Size Distribution, Range","[3]; Sieve Size <1.9 μm, listed as Milled",11.73 wt %
same,"Summary Particle Size Distribution, Range","[3]; Sieve Size <3.9 μm, listed as Milled",26.99 wt %
same,"Summary Particle Size Distribution, Range","[3]; Sieve Size >105 μm, listed as Milled",1.54 wt % and 1.68 wt %
same,"Summary Particle Size Distribution, Range","[3]; Sieve Size >177 μm, listed as Milled",0.30 wt %
same,Particle Size Distribution,"[3]; Size 1.9 μm, listed as Milled",3.7746 weight percent
same,Particle Size Distribution,"[3]; Size 2.3 μm, listed as Milled",1.8957 weight percent
same,Particle Size Distribution,"[3]; Size 2.8 μm, listed as Milled",3.9085 weight percent
same,Particle Size Distribution,"[3]; Size 3.3 μm, listed as Milled",4.3981 weight percent
same,Particle Size Distribution,"[3]; Size 3.9 μm, listed as Milled",5.0539 weight percent
same,Particle Size Distribution,"[3]; Size 4.6 μm, listed as Milled",4.0079 weight percent
same,Particle Size Distribution,"[3]; Size 5.5 μm, listed as Milled",4.6002 weight percent
same,Particle Size Distribution,"[3]; Size 6.5 μm, listed as Milled",5.3931 weight percent
same,Particle Size Distribution,"[3]; Size 7.8 μm, listed as Milled",5.6669 weight percent
same,Particle Size Distribution,"[3]; Size 9.2 μm, listed as Milled",6.1254 weight percent
same,Particle Size Distribution,"[3]; Size 11 μm, listed as Milled",6.0030 weight percent
same,Particle Size Distribution,"[3]; Size 13 μm, listed as Milled",5.4418 weight percent
same,Particle Size Distribution,"[3]; Size 16 μm, listed as Milled",4.6925 weight percent
same,Particle Size Distribution,"[3]; Size 19 μm, listed as Milled",4.8575 weight percent
same,Particle Size Distribution,"[3]; Size 22 μm, listed as Milled",4.9085 weight percent
same,Particle Size Distribution,"[3]; Size 26 μm, listed as Milled",4.4529 weight percent
same,Particle Size Distribution,"[3]; Size 31 μm, listed as Milled",3.4498 weight percent
same,Particle Size Distribution,"[3]; Size 37 μm, listed as Milled",2.4873 weight percent
same,Particle Size Distribution,"[3]; Size 44 μm, listed as Milled",2.0818 weight percent
same,Particle Size Distribution,"[3]; Size 53 μm, listed as Milled",2.3280 weight percent
same,Particle Size Distribution,"[3]; Size 63 μm, listed as Milled",2.2067 weight percent
same,Particle Size Distribution,"[3]; Size 75 μm, listed as Milled",1.5439 weight percent
same,Particle Size Distribution,"[3]; Size 88 μm, listed as Milled",1.2313 weight percent
same,Particle Size Distribution,"[3]; Size 105 μm, listed as Milled",0.8371 weight percent
same,Particle Size Distribution,"[3]; Size 125 μm, listed as Milled",0.4144 weight percent
same,Particle Size Distribution,"[3]; Size 149 μm, listed as Milled",0.1331 weight percent
same,Particle Size Distribution,"[3]; Size 177 μm, listed as Milled",0.1199 weight percent
same,Particle Size Distribution,"[3]; Size 210 μm, listed as Milled",0.0486 weight percent
same,Particle Size Distribution,"[3]; Size 250 μm, listed as Milled",0.132 weight percent
same,Particle Size Distribution,"[3]; Size 298 μm, listed as Milled",0.0000 weight percent
same,Particle Size Distribution,"[3]; Size <1.9 μm, listed as Milled",7.9543 weight percent
same,Particle Size Distribution,"[3]; Size >298 μm, listed as Milled",0.0000 weight percent
same,mean particle size,[3]; listed as Milled,19.1 μm
same,median particle size,[3]; listed as Milled,10.3 μm
same,"Summary Particle Size Distribution, Cumul.","[3]; up to Sieve Size 2.3-3.9 μm, listed as Milled",26.99 wt %
same,"Summary Particle Size Distribution, Cumul.","[3]; up to Sieve Size 4.6-16 μm, listed as Milled",68.92 wt %
same,"Summary Particle Size Distribution, Cumul.","[3]; up to Sieve Size 19-37 μm, listed as Milled",89.07 wt %
same,"Summary Particle Size Distribution, Cumul.","[3]; up to Sieve Size 44-88 μm, listed as Milled",98.46 wt %
same,"Summary Particle Size Distribution, Cumul.","[3]; up to Sieve Size 105-149 μm, listed as Milled",99.85 wt %
same,"Summary Particle Size Distribution, Cumul.","[3]; up to Sieve Size <1.9 μm, listed as Milled",11.73 wt %
same,"Summary Particle Size Distribution, Cumul.",[3]; [4],˜100* wt %
